Data on one substance can be found in patent US8586318B2, “Restricted access media and methods for making restricted access media” (Board of Regents of the University of Nebraska, priority 2008, dated 2013).

Test [1] relates to anti-fluorescein antibodies. Briefly: Static binding of fluorescein or fluorescein-BSA to anti-fluorescein RAM support. Also on record: species or system mouse. The note with it: 100 Å silica. The method, then: The binding properties of the anti-fluorescein IA-RAM support were initially determined before and after digestion by reacting this support with a known excess of fluorescein (sodium salt, MW=376 Da) or fluorescein-BSA conjugate (average MW=69.5 kDa). Studies were performed using anti-fluorescein antibodies covalently linked to Nucleosil Si-100 using the hydrazide-activation method. A 2 mg portion of the desired anti-fluorescein support was incubated with shaking in 1 mL of a 0.040 μg/mL fluorescein solution or 1 mL of 20 μg/mL fluorescein-BSA solution in 0.1 M potassium phosphate buffer (pH 7.4) at 4° C. for 30 minutes. The mixtures were centrifuged and the supernatant was analyzed for fluorescein or fluorescein-BSA content based on the fluorescence of the solutions. Standard solutions that contained 0.002-2.0 μg/mL fluorescein or 1-30 μg/mL of the fluorescein-BSA conjugate in 0.10 M potassium phosphate buffer (pH 7.4) were also analyzed. The amount of fluorescein or fluorescein-BSA bound to the anti-fluorescein IA-RAM supports was determined by comparing the final and initial concentrations of fluorescein or fluorescein-BSA that remained in solution. […] The fluorescein or fluorescein-BSA that was bound by anti-fluorescein antibodies was determined by determining the amount of the analytes that remained in solution after the incubation step.

For test [2], the system named is anti-fluorescein antibodies. The experiment in a line: Ultrafast extraction on anti-fluorescein RAM column, flow-based. In kind it is binding, mouse. On the procedure: For chromatographic studies, 200 μL injections of samples containing 0.5 nM fluorescein or 3 nM of fluorescein-BSA were made at flow rates ranging from 0.1-1.0 mL/min. The injections were performed at room temperature using 0.067 M potassium phosphate buffer (pH 7.4) as the application buffer. Two or three replicate injections were made at each flow rate onto columns containing the anti-fluorescein IA-RAM support or the corresponding control support. […] The fraction of extracted fluorescein was calculated by comparing the areas of the non-retained peaks to those obtained using a control column. […] The retained species were eluted between studies by washing the column with a 0.067 M potassium phosphate buffer (pH 2.5) for 20 minutes. Elution was followed by a column regeneration step by applying 0.067 M phosphate application buffer (pH 7.4) for 10 minutes before each new sample injection. The RAM, specifically an IA-RAM made using anti-fluorescein antibody, was tested for use in a flow-based system for the selective, ultrafast extraction of fluorescein versus a fluorescein-BSA conjugate. This was accomplished by comparing the results obtained with a RAM column to results for a control column containing only diol silica.

With “fluorescein-BSA conjugate: fluorescein conjugate of bovine serum albumin, prepared using fluorescein isothiocyanate, 12 mol fluorescein/mol protein”, in test [1] (before papain treatment, hydrazide method, 30 minutes incubation), the “original binding capacity of the covalently linked antibodies” value is on record as 0.69 (±0.01) mg/g silica. Also, the “decrease of binding capacity after treatment with papain” value in test [1] (papain 90 minutes at 37° C., 1:100 (w/w)) was found to be 92%. For the same substance, in test [2] (injected at 0.1 mL/min), the “retention on anti-fluorescein RAM column (in words)” value is recorded as “no significant degree of binding”. In test [2] (same conditions as used for fluorescein), the “extracted by anti-fluorescein RAM support” value is given as “less than 1%”.
